Results: patent publication US5900434A, “Method for inhibiting the production of interleukin-1 or tumor necrosis factor-α by administering acanthoic acid” (Korea Institute of Science and Technology, priority 1994, dated 1999)

Assays:
[1] = test system: O2^- production in human neutrophils; assay: Production of O2^- in human neutrophils (PMA-stimulated); assay type: cell-based
Method: Normal human peripheral blood was heparin-treated and diluted with equal amount of Hank's balanced salt solution (HBSS: Ca^2+ and Mg^2+ free). The diluted blood was put into a centrifuge tube containing therein Ficoll-Hypaque(Sigma, St. Louis, Mo., U.S.A.) layer having a density of 1.077 piled up on Ficoll-Hypaque layer having a density of 1.119, and then centrifuged at 700×g for 30 minutes to obtain monocytes from the layer between Ficoll-Hypaque layer having a density of 1.077 and serum layer, and neutrophils from the layer between Ficoll-Hypaque layer having a density of 1.077 and that having a density of 1.119. The separated cells were washed twice with 4° C. HBSS(Ca^2+ and Mg^2+ free) and suspended in RPMI 1640 medium(Gibco, Grand Island, N.Y., U.S.A.) containing 10% fetal bovine serum(FBS, Hyclone, Logan, Utah, U.S.A.). The suspensions were added to the wells of 24-well incubation plate(Costar, Cambridge, Mass., U.S.A.) and incubated at 37° C. for 2 hours to obtain monocytes, macrophages and neutrophils. Inflammatory responses are known as a cascade reaction comprising the secretion of various cytokines, e.g., IL-1, from immune cells stimulated by various stimulants; production of phospholipase A2, lysosomal enzyme, reactive oxygen species, etc. by other immune cells stimulated by said cytokines; and damage of tissues induced by the above products(Pruzanski, W. and […]., Immunol. Today, 12, 143(1991)). The ability of acanthoic acid to block the inflammatory reactions was tested by measuring their inhibitory activity to the production of reactive oxygen species, i.e., H2 O2 and O2^-. For the purpose of measuring the amount of produced O2^-, neutrophils suspended in RPMI 1640 medium in a concentration of 1×10^6 cells/800 μl was added to a part of the wells of 24-well plate and 10 μg/ml of superoxide dismutase(SOD, Sigma) was added to the empty wells. The plate was stored at 37° C. for 2 minutes, and cytochrome C(3 mg/ml, Sigma) was added to the wells in a concentration of 100 μl/well. The cells were treated with 10, 20 and 50 μg/ml of acanthoic acid for an hour and reacted at 37° C. for 20 minutes by introducing 10^-7 PMA as a stimulant. The reaction was terminated by adding 1 mM N-ethylmaleimide(Sigma) to the wells and the culture was centrifuged at 1,600×g for 10 minutes to obtain a supernatant. The change of color of the supernatant caused by the reduction of cytochrome C was measured at 550 nm by using a UV-Visible spectrophotometer (Kontron Instrument, Milano, Italy). The amount of produced O2^- was represented by the concentration of SOD which can suppress the reduction of cytochrome C in 1×10^6 cells for 20 minutes, by employing the extinction coefficient of cytochrome C(E550 nm =1.83×10^4 […] cm^-1).

[2] = test system: IL-1 production in human monocytes and macrophages; assay: Inhibition of IL-1 production in human monocytes and macrophages (silica-stimulated, thymocyte 3H-thymidine assay); assay type: cell-based; details: 0.1 to 100 μg/ml; 100 μg/ml silica, 48 hours; FIG. 2
Method: Normal human peripheral blood was heparin-treated and diluted with equal amount of Hank's balanced salt solution (HBSS: Ca^2+ and Mg^2+ free). The diluted blood was put into a centrifuge tube containing therein Ficoll-Hypaque(Sigma, St. Louis, Mo., U.S.A.) layer having a density of 1.077 piled up on Ficoll-Hypaque layer having a density of 1.119, and then centrifuged at 700×g for 30 minutes to obtain monocytes from the layer between Ficoll-Hypaque layer having a density of 1.077 and serum layer, and neutrophils from the layer between Ficoll-Hypaque layer having a density of 1.077 and that having a density of 1.119. The separated cells were washed twice with 4° C. HBSS(Ca^2+ and Mg^2+ free) and suspended in RPMI 1640 medium(Gibco, Grand Island, N.Y., U.S.A.) containing 10% fetal bovine serum(FBS, Hyclone, Logan, Utah, U.S.A.). The suspensions were added to the wells of 24-well incubation plate(Costar, Cambridge, Mass., U.S.A.) and incubated at 37° C. for 2 hours to obtain monocytes, macrophages and neutrophils. […] The activity of IL-1 in the dialyzate was determined in accordance with the method of Gery described in Cellular Immunology, 64, 293-303(1981) as follows. […] When the incubation was completed, the cells were collected on the glass fiber filter and the amount of incorporated ^3 H-thymidine was determined by liquid scintillation counter(Beckman).

C=C[C@@]1(C)CC=C2C(CCC3[C@](C)(C(=O)O)CCC[C@@]23C)C1 (single isomer, unassigned; (-)) [acanthoic acid, (-)-pimara-9(11),15-diene-19-oic acid]
inhibition at 50 µg/mL ([1]; Neutrophil, 50 μg/ml, PMA): 72%
activity at 10 µg/mL ([1]; Neutrophil, 20 min, PMA + acanthoic acid 10 μg/ml, PMA = 100, read-out: Amount of produced reactive oxygen species, O2^- (% to the control group)): 76.8%
activity at 20 µg/mL ([1]; Neutrophil, 20 min, PMA + acanthoic acid 20 μg/ml, PMA = 100, read-out: Amount of produced reactive oxygen species, O2^- (% to the control group)): 31.6%
activity at 50 µg/mL ([1]; Neutrophil, 20 min, PMA + acanthoic acid 50 μg/ml, PMA = 100, read-out: Amount of produced reactive oxygen species, O2^- (% to the control group)): 28.4%
Amount of produced reactive oxygen species, O2^- ([1]; PMA + acanthoic acid 10 μg/ml): 11.9 nM/20 min.
Amount of produced reactive oxygen species, O2^- ([1]; PMA + acanthoic acid 20 μg/ml): 4.9 nM/20 min.
Amount of produced reactive oxygen species, O2^- ([1]; PMA + acanthoic acid 50 μg/ml): 4.4 nM/20 min.
inhibition of production of IL-1 [2]: inhibited by acanthoic acid in a concentration-dependent mode
